The record followed here is US7053052B2, “Therapies involving mutated heat shock transcription factor” (priority 1997, dated 2006).

The assay relates to HeLa-CAT cells. Nature of the assay: Rates of protein and DNA synthesis in HSF1(+)-expressing cells (3H-leucine, 3H-thymidine incorporation). In kind it is cell-based, human. To be noted: day 2. How it is done:
CAT assays were performed using the chromatographic assay of Gorman, C. M. et al., Mol. Cell. Biol., 2:1044–1051 (1982)). DNA replication was assessed by a standard ^3H-thymidine incorporation assay. In most experiments, including all western blot assays, standardization was based on protein content. All protein determinations were made using the Bradford method. In a few experiments involving sorted cells, standardization was based on cell numbers. All experiments were repeated at least twice, and, in most cases, each data point was derived from assays of 3–5 parallel samples.
Protein synthesis dropped to about 10% of the normal rate during heat shock but, after a 1 hour recovery period, returned to pre-shock level in HSF1(+)-expressing but not control cells. […] Fluorescence-activated cell sorting and analyses of DNA content were performed on a FACStar Plus machine (Becton-Dickinson, San Jose, Calif.) configured as described elsewhere (Parks, D. R. et al., In: The Handbook of Experimental Immunology, 4th Edition. Vol. 29. pp. 1–29, 1986). Excitation wave length was 488 nm, and detection lengths were 650 nm (long pass) for propidium iodide and 520 nm (narrow band) for fluorescence by GFP. Extracts from sorted cells were analyzed by western blot. mutHSF was detected in cells sorted as positive for GFP, but not in cells sorted as negative compare. […]

Consider human HSF1d202–316 [HSF1(+)], for which the “reduction of DNA replication (3H-thymidine incorporation) compared to control cells” value was 4–5 fold.
